Values after ≈ are worked out from the molar mass of the structure shown.
Experiments:
[1] = test system: Staphylococcus aureus; test: Antibacterial activity against methicillin-resistant Staphylococcus aureus OM481 by two-fold liquid microdilution method; format: functional
[2] = test system: Staphylococcus aureus; test: Antibacterial activity against methicillin-resistant Staphylococcus aureus OM584 by two-fold liquid microdilution method; format: functional

Q: Which results are given for `Oc1ccccc1Oc1ccccc1`?
A: MIC [1]: 6.25 µg/mL (≈ 33.6 µM); MIC [2]: 6.25 µg/mL (≈ 33.6 µM)

Q: How did the MIC [1] turn out when `COc1ccc2c(c1)CCc1ccc(cc1)Oc1cccc(c1)CCc1ccc-2cc1` was run?
A: > 100 µg/mL

Q: What about the MIC [2] of the same compound?
A: > 100 µg/mL

Q: How did the MIC [1] turn out when `Oc1ccc2c(c1)CCc1ccc(cc1)Oc1cccc(c1)CCc1ccc-2cc1` was run?
A: 1.6 µg/mL (≈ 4.08 µM)

Q: What about the MIC [2] of the same compound?
A: > 100 µg/mL

Q: How did the MIC [1] turn out when `Oc1ccc2c(c1)CCc1ccc(c(O)c1)Oc1cc(ccc1O)CCc1ccc-2c(O)c1` was run?
A: 16 µg/mL (≈ 36.3 µM)

Q: What about the MIC [2] of the same compound?
A: 16 µg/mL (≈ 36.3 µM)

Q: Which results are given for `Oc1ccc2c(c1)CCc1ccc(cc1O)Oc1cc(ccc1O)CCc1ccc-2c(O)c1`?
A: MIC [1]: 8 µg/mL (≈ 18.2 µM); MIC [2]: 8 µg/mL (≈ 18.2 µM)

Q: With `Oc1ccc(-c2ccccc2O)cc1` as the compound, how does the MIC [1] read?
A: > 100 µg/mL

Q: And the MIC [2]?
A: > 100 µg/mL

Q: How did the MIC [1] turn out when `COc1cc2ccc1-c1ccccc1CCc1ccc(cc1)Oc1cccc(c1)CC2` was run?
A: > 100 µg/mL

Q: And the MIC [2]?
A: > 100 µg/mL

Q: How did the MIC [1] turn out when `COc1ccc2cc1Oc1ccc(cc1)CCc1ccccc1-c1ccc(cc1)CC2` was run?
A: > 100 µg/mL

Q: And the MIC [2]?
A: > 100 µg/mL

Q: For `Oc1ccc2c(c1)CCc1ccc(cc1)Oc1cc(ccc1O)CCc1ccc-2cc1`, which MIC [1] is on record?
A: 3.2 µg/mL (≈ 7.83 µM)

Q: And the MIC [2]?
A: 3.2 µg/mL (≈ 7.83 µM)

Q: For `Oc1ccc2cc1Oc1ccc(cc1)CCc1ccccc1-c1ccc(cc1O)CC2`, which MIC [1] is on record?
A: 3.2 µg/mL (≈ 7.83 µM)

Q: What about the MIC [2] of the same compound?
A: 3.2 µg/mL (≈ 7.83 µM)

Q: What does the source list for `Oc1ccc2c(c1)CCc1ccc(cc1)Oc1cccc(c1)CCc1ccc-2c(O)c1`?
A: MIC [1]: 3.2 µg/mL (≈ 7.83 µM); MIC [2]: 3.2 µg/mL (≈ 7.83 µM)

Q: Which results are given for `Oc1cc2ccc1-c1ccccc1CCc1ccc(cc1)Oc1cccc(c1)CC2`?
A: MIC [1]: 3.2 µg/mL (≈ 8.15 µM); MIC [2]: > 100 µg/mL

Q: What does the source list for `Oc1ccc2cc1Oc1ccc(cc1)CCc1ccccc1-c1ccc(cc1)CC2`?
A: MIC [1]: > 100 µg/mL; MIC [2]: > 100 µg/mL

Q: With `CC(=O)NC[C@H]1CN(c2ccc(N3CCOCC3)c(F)c2)C(=O)O1` [LINEZOLID] as the compound, how does the MIC [1] read?
A: 1 µg/mL (≈ 2.96 µM)

Q: What about the MIC [2] of the same compound?
A: 1 µg/mL (≈ 2.96 µM)

Q: What does the source list for `Oc1ccc(CCc2cccc(O)c2)cc1` [LUNULARIN]?
A: MIC [1]: > 100 µg/mL; MIC [2]: > 100 µg/mL

Q: With `Oc1ccc2c(c1)CCc1ccc(cc1)Oc1cc(ccc1O)CCc1ccc-2c(O)c1` [RICCARDI C] as the compound, how does the MIC [1] read?
A: 3.2 µg/mL (≈ 7.54 µM)

Q: And the MIC [2]?
A: 3.2 µg/mL (≈ 7.54 µM)

From ChEMBL document CHEMBL2203260, “Riccardin C derivatives as anti-MRSA agents: structure-activity relationship of a series of hydroxylated bis(bibenzyl)s” (2012)
